Laboratory results reported in US11440910B2, “Pesticidally active heterocyclic derivatives with sulfur containing substituents” (SYNGENTA PARTICIPATIONS AG, priority 2017, dated 2022).

Experiments:
Assay type in all cases: in vivo
[1] = test system: Plutella xylostella (Diamond back moth); assay: Example B3: Plutella xylostella, artificial diet; conditions: 120 h, application rate 200 ppm, L2 larvae, 5 days after infestation, read-out: effect in at least one of the two categories (mortality or growth inhibition)
Method: Example B3: Plutella Xylostella (Diamond Back Moth)
(§1) 24-well microtiter plates with artificial diet were treated with aqueous test solutions prepared from 10′000 ppm DMSO stock solutions by pipetting. After drying, the plates were infested with L2 larvae (10 to 15 per well). The samples were assessed for mortality and growth inhibition in comparison to untreated samples 5 days after infestation.

[2] = test system: Diabrotica balteata (Corn root worm); assay: Example B4: Diabrotica balteata, maize sprouts sprayed; conditions: 96 h, application rate 200 ppm, L2 larvae, 4 days after infestation, read-out: effect in at least one of the two categories (mortality or growth inhibition)
Method: Example B4: Diabrotica Balteata (Corn Root Worm)
as §1, with “Maize sprouts placed onto an agar layer in 24-well” for “24-well”, “plates” for “plates with artificial diet”, “spraying.” for “pipetting.”, “(6” for “(10”, “10” for “15”, “4” for “5”

[3] = test system: Myzus persicae (Green peach aphid); assay: Example B5: Myzus persicae, sunflower leaf discs sprayed; conditions: foliar, 144 h, application rate 200 ppm, mixed ages, 6 days after infestation
Method: Example B5: Myzus Persicae (Green Peach Aphid)
Sunflower leaf discs were placed onto agar in a 24-well microtiter plate and sprayed with aqueous test solutions prepared from 10′000 ppm DMSO stock solutions. After drying, the leaf discs were infested with an aphid population of mixed ages. The samples were assessed for mortality 6 days after infestation.

[4] = test system: Myzus persicae (Green peach aphid); assay: Example B6: Myzus persicae, roots of pea seedlings in test solution; conditions: 144 h, test rate 24 ppm, mixed ages, 6 days after placing seedlings into test solutions
Method: Example B6: Myzus Persicae (Green Peach Aphid)
Roots of pea seedlings infested with an aphid population of mixed ages were placed directly into aqueous test solutions prepared from 10′000 DMSO stock solutions. The samples were assessed for mortality 6 days after placing seedlings into test solutions.

[5] = test system: Bemisia tabaci (Cotton white fly); assay: Example B7: Bemisia tabaci, cotton leaf discs sprayed; conditions: foliar, 144 h, application rate 200 ppm, adult white flies, 6 days after incubation
Method: Example B7: Bemisia Tabaci (Cotton White Fly)
Cotton leaf discs were placed on agar in 24-well microtiter plates and sprayed with aqueous test solutions prepared from 10′000 ppm DMSO stock solutions. After drying the leaf discs were infested with adult white flies. The samples were checked for mortality 6 days after incubation.

[6] = test system: Euschistus heros (Neotropical brown stink bug); assay: Example B8: Euschistus heros, soybean leaves sprayed; conditions: 120 h, application rate 200 ppm, N2 nymphs, 5 days after infestation, read-out: effect in at least one of the two categories (mortality or growth inhibition)
Method: Example B8: Euschistus Heros (Neotropical Brown Stink Bug)
Soybean leaves on agar in 24-well microtiter plates were sprayed with aqueous test solutions prepared from 10′000 ppm DMSO stock solutions. After drying the leaves were infested with N2 nymphs. The samples were assessed for mortality and growth inhibition in comparison to untreated samples 5 days after infestation.

Euschistus heros = assay: Example B13: comparison against Euschistus heros, soybean plants sprayed; conditions: 120 h, Concentration 3 ppm, N2 nymphs on 2 week old soybean plants, 5 days after treatment
Method: Activity of compound P17 according to the present invention and of compound P15 from WO2016/026848 against Euschistus heros is summarized in Table B13.
2 week old soybean plants were sprayed with diluted aqueous test solutions. Afterwards plants were infested with 10 stink bug nymphs (N2). Soybean seeds were added as additional food source to the test system. 5 days after treatment the samples were assessed for mortality.

## CCS(=O)(=O)c1cc(C(C)(C)C#N)ccc1-c1nc2cc(C(F)(F)F)ncc2n1C [Compound P17, 2-[3-ethylsulfonyl-4-[3-methyl-6-(trifluoromethyl)imidazo[4,5-c]pyridin-2-yl]phenyl]-2-methyl-propanenitrile]
[1]
  percent effect (mortality or growth inhibition) at 200 ppm: ≥ 80%
[2]
  percent effect (mortality or growth inhibition) at 200 ppm: ≥ 80%
[3]
  mortality at 200 ppm: ≥ 80%
[4]
  mortality at 24 ppm: ≥ 80%
[5]
  mortality at 200 ppm: ≥ 80%
[6]
  percent effect (mortality or growth inhibition) at 200 ppm: ≥ 80%
Euschistus heros
  mortality at 3 ppm: 95%
